Laboratory results as given in patent US20260297081A1, “COMPOUNDS AND METHODS OF TREATING CANCERS” (Cullgen Inc., priority 2023, published 2026).

Biological target: CDK4 (Homo sapiens, UniProt P11802+Q16531)
Test: HiBiT detection of HiBiT-tagged CDK4 protein level in MCF7 cells, 16 hours (Table 8)
Type: cell-based
Design: expressed in transfected cells; host or cells: MCF7
Conditions: MCF7 cells stably expressing HiBiT tagged target proteins; for activity at 0.01 µM: 10 nM, read-out: % CDK4 Relative Level (10 nM); for activity at 0.1 µM: 100 nM, read-out: % CDK4 Relative Level (100 nM)
Method: HiBiT detection system quantitatively measures total amounts of HiBiT-tagged proteins using a luminescent based method. MCF7 cells stably expressing HiBiT tagged target proteins were treated with heterobifunctional compounds at indicated concentrations for 16 hours, then lysed with Nano-Glo HiBiT Lytic detection reagents.

Chain of CDK4 (P11802 whole entry): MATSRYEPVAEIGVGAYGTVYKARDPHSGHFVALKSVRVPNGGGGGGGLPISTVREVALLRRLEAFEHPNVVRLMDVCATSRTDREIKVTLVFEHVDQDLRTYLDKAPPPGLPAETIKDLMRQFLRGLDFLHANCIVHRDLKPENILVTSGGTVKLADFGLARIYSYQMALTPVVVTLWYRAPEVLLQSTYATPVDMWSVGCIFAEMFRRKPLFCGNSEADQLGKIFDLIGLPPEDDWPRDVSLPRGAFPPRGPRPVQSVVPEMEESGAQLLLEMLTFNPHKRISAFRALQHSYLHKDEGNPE
Chain of CDK4 (P24385 whole entry partner): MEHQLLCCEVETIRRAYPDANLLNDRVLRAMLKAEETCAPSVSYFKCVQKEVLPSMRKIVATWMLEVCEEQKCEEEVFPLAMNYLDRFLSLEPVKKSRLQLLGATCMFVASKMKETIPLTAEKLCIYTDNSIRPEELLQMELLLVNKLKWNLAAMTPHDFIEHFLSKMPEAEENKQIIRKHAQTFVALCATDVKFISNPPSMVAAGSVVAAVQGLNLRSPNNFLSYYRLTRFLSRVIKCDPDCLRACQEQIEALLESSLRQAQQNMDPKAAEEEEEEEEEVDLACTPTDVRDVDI
Chain of CDK4 (Q16531 2-1140 limits assumed): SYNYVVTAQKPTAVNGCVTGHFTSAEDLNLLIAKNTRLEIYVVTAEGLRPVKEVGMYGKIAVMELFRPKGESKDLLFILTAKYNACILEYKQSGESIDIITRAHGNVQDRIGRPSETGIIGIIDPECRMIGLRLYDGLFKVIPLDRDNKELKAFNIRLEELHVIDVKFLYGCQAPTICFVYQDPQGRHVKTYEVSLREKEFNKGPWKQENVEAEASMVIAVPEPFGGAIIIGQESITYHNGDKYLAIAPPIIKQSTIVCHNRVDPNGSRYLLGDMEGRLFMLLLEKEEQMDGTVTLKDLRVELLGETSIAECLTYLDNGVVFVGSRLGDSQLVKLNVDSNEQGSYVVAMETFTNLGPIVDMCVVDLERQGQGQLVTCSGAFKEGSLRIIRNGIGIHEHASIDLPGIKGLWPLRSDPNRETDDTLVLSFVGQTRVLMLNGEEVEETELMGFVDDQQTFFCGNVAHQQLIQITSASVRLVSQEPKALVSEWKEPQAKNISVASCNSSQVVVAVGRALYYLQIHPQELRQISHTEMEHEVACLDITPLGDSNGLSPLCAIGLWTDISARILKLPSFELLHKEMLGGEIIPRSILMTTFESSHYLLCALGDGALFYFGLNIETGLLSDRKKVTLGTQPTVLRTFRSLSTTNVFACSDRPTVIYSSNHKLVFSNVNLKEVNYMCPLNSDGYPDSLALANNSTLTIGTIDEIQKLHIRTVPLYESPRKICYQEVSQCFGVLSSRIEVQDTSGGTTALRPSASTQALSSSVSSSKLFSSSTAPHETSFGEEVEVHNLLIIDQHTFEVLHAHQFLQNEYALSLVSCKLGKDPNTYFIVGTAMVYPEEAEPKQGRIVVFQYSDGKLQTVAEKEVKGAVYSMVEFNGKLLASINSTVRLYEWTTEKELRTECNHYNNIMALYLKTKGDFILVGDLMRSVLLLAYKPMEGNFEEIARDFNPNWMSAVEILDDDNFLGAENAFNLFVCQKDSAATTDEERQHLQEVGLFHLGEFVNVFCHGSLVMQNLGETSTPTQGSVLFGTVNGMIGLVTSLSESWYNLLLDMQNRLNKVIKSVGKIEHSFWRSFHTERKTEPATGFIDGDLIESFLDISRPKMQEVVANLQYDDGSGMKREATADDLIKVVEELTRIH

Row | Compound | activity at 0.01 µM | activity at 0.1 µM
1 | CNc1ccc(C(=O)Nc2ccc(N(C)C)nn2)c(NCCCCCCC(=O)NC2CCC(Nc3ncc4ccc(=O)n(C5CCCC5)c4n3)CC2)n1 (stereo not drawn) [CPD-670, 2-((7-((4-((8-cyclopentyl-7-oxo-7,8-dihydropyrido[2,3-d]pyrimidin-2-yl)amino)cyclohexyl)amino)-7-oxoheptyl)amino)-N-(6-(dimethylamino)pyridazin-3-yl)-6-(methylamino)nicotinamide] | > 85% | > 85%
2 | CNc1ccc(C(=O)Nc2ccc(N(C)C)nn2)c(NCCCCCCNC(=O)CN2CCN(Cc3ccc(Nc4ncc(F)c(-c5cc(F)c6nc(C)n(C(C)C)c6c5)n4)nc3)CC2)n1 [CPD-612, N-(6-(dimethylamino)pyridazin-3-yl)-2-((6-(2-(4-((6-((5-fluoro-4-(4-fluoro-1-isopropyl-2-methyl-1H-benzo[d]imidazol-6-yl)pyrimidin-2-yl)amino)pyridin-3-yl)methyl)piperazin-1-yl)acetamido)hexyl)amino)-6-(methylamino)nicotinamide] | > 85% | > 85%
3 | CNc1ccc(C(=O)Nc2ccc(N(C)C)nn2)c(NCCCCCCC(=O)N2CCN(c3ccc(Nc4ncc(F)c(-c5cc(F)c6nc(C)n(C(C)C)c6c5)n4)nc3)CC2)n1 [CPD-652, N-(6-(dimethylamino)pyridazin-3-yl)-2-((7-(4-(6-((5-fluoro-4-(4-fluoro-1-isopropyl-2-methyl-1H-benzo[d]imidazol-6-yl)pyrimidin-2-yl)amino)pyridin-3-yl)piperazin-1-yl)-7-oxoheptyl)amino)-6-(methylamino)nicotinamide] | > 85% | > 85%
4 | CNc1ccc(C(=O)Nc2ccc(N(C)C)nn2)c(NCCCCCC(=O)NC2CCC(Nc3ncc4ccc(=O)n(C5CCCC5)c4n3)CC2)n1 (stereo not drawn) [CPD-669, 2-((6-((4-((8-cyclopentyl-7-oxo-7,8-dihydropyrido[2,3-d]pyrimidin-2-yl)amino)cyclohexyl)amino)-6-oxohexyl)amino)-N-(6-(dimethylamino)pyridazin-3-yl)-6-(methylamino)nicotinamide] | > 85% | > 85%
5 | CNc1ccc(C(=O)Nc2ccc(N(C)C)nn2)c(NCC(=O)N2CCN(Cc3ccc(Nc4ncc(F)c(-c5cc(F)c6nc(C)n(C(C)C)c6c5)n4)nc3)CC2)n1 [CPD-656, N-(6-(dimethylamino)pyridazin-3-yl)-2-((2-(4-((6-((5-fluoro-4-(4-fluoro-1-isopropyl-2-methyl-1H-benzo[d]imidazol-6-yl)pyrimidin-2-yl)amino)pyridin-3-yl)methyl)piperazin-1-yl)-2-oxoethyl)amino)-6-(methylamino)nicotinamide] | > 85% | > 85%
6 | CNc1ccc(C(=O)Nc2ccc(N(C)C)nn2)c(NCCCCCCCC(=O)N2CCN(Cc3ccc(Nc4ncc(F)c(-c5cc(F)c6nc(C)n(C(C)C)c6c5)n4)nc3)CC2)n1 [CPD-605, N-(6-(dimethylamino)pyridazin-3-yl)-2-((8-(4-((6-((5-fluoro-4-(4-fluoro-1-isopropyl-2-methyl-1H-benzo[d]imidazol-6-yl)pyrimidin-2-yl)amino)pyridin-3-yl)methyl)piperazin-1-yl)-8-oxooctyl)amino)-6-(methylamino)nicotinamide] | > 85% | > 85%
7 | CNc1ccc(C(=O)Nc2ccc(N(C)C)nn2)c(NCCOCCC(=O)NC2CCC(Nc3ncc4ccc(=O)n(C5CCCC5)c4n3)CC2)n1 (stereo not drawn) [CPD-672, 2-((2-(3-((4-((8-cyclopentyl-7-oxo-7,8-dihydropyrido[2,3-d]pyrimidin-2-yl)amino)cyclohexyl)amino)-3-oxopropoxy)ethyl)amino)-N-(6-(dimethylamino)pyridazin-3-yl)-6-(methylamino)nicotinamide] | > 85% | > 85%
8 | CNc1ccc(C(=O)Nc2ccc(N(C)C)nn2)c(NCCCCCCC(=O)N2CCN(Cc3ccc(Nc4ncc(F)c(-c5cc(F)c6nc(C)n(C(C)C)c6c5)n4)nc3)CC2)n1 [CPD-604, N-(6-(dimethylamino)pyridazin-3-yl)-2-((7-(4-((6-((5-fluoro-4-(4-fluoro-1-isopropyl-2-methyl-1H-benzo[d]imidazol-6-yl)pyrimidin-2-yl)amino)pyridin-3-yl)methyl)piperazin-1-yl)-7-oxoheptyl)amino)-6-(methylamino)nicotinamide] | > 85% | > 85%
9 | CNc1ccc(C(=O)Nc2ccc(N(C)C)nn2)c(NCCCCNC(=O)CN2CCN(c3ccc(Nc4ncc(F)c(-c5cc(F)c6nc(C)n(C(C)C)c6c5)n4)nc3)CC2)n1 [CPD-660, N-(6-(dimethylamino)pyridazin-3-yl)-2-((4-(2-(4-(6-((5-fluoro-4-(4-fluoro-1-isopropyl-2-methyl-1H-benzo[d]imidazol-6-yl)pyrimidin-2-yl)amino)pyridin-3-yl)piperazin-1-yl)acetamido)butyl)amino)-6-(methylamino)nicotinamide] | > 85% | > 85%
10 | CNc1ccc(C(=O)Nc2ccc(N(C)C)nn2)c(NCCCC(=O)NC2CCC3(CC2)CC(Nc2ncc4ccc(=O)n(C5CCCC5)c4n2)C3)n1 (stereo not drawn) [CPD-674, 2-((4-((2-((8-cyclopentyl-7-oxo-7,8-dihydropyrido[2,3-d]pyrimidin-2-yl)amino)spiro[3.5]nonan-7-yl)amino)-4-oxobutyl)amino)-N-(6-(dimethylamino)pyridazin-3-yl)-6-(methylamino)nicotinamide] | > 85% | > 85%
11 | CNc1ccc(C(=O)Nc2ccc(N(C)C)nn2)c(NCCCC(=O)N2CCN(c3ccc(Nc4ncc(F)c(-c5cc(F)c6nc(C)n(C(C)C)c6c5)n4)nc3)CC2)n1 [CPD-649, N-(6-(dimethylamino)pyridazin-3-yl)-2-((4-(4-(6-((5-fluoro-4-(4-fluoro-1-isopropyl-2-methyl-1H-benzo[d]imidazol-6-yl)pyrimidin-2-yl)amino)pyridin-3-yl)piperazin-1-yl)-4-oxobutyl)amino)-6-(methylamino)nicotinamide] | > 85% | > 85%
12 | CNc1ccc(C(=O)Nc2ccc(N(C)C)nn2)c(NCCCCNC(=O)CN2CCN(Cc3ccc(Nc4ncc(F)c(-c5cc(F)c6nc(C)n(C(C)C)c6c5)n4)nc3)CC2)n1 [CPD-610, N-(6-(dimethylamino)pyridazin-3-yl)-2-((4-(2-(4-((6-((5-fluoro-4-(4-fluoro-1-isopropyl-2-methyl-1H-benzo[d]imidazol-6-yl)pyrimidin-2-yl)amino)pyridin-3-yl)methyl)piperazin-1-yl)acetamido)butyl)amino)-6-(methylamino)nicotinamide] | > 85% | > 85%
13 | CNc1ccc(C(=O)Nc2ccc(N(C)C)nn2)c(NCCOCCC(=O)N2CCN(c3ccc(Nc4ncc5cc6n(c5n4)C4(CCCCC4)CNC6=O)nc3)CC2)n1 [CPD-638] | > 85% | > 85%
14 | CNc1ccc(C(=O)Nc2ccc(N(C)C)nn2)c(NCCC(=O)N2CCN(c3ccc(Nc4ncc5cc6n(c5n4)C4(CCCCC4)CNC6=O)nc3)CC2)n1 [CPD-632, N-(6-(dimethylamino)pyridazin-3-yl)-6-(methylamino)-2-((3-oxo-3-(4-(6-((6′-oxo-7′,8′-dihydro-6′H-spiro[cyclohexane-1,9′-pyrazino[1′,2′:1,5]pyrrolo[2,3-d]pyrimidin]-2′-yl)amino)pyridin-3-yl)piperazin-1-yl)propyl)amino)nicotinamide] | > 85% | > 85%
15 | CC(C)Nc1ccc(C(=O)Nc2ccc(N(C)C)nn2)c(NC2CC3(C2)CN(C(=O)CN2CCN(Cc4ccc(Nc5ncc6cc(C(=O)N(C)C)n(C7CCCC7)c6n5)nc4)CC2)C3)n1 [CPD-563, 7-cyclopentyl-2-((5-((4-(2-(6-((3-((6-(dimethylamino)pyridazin-3-yl)carbamoyl)-6-(isopropylamino)pyridin-2-yl)amino)-2-azaspiro[3.3]heptan-2-yl)-2-oxoethyl)piperazin-1-yl)methyl)pyridin-2-yl)amino)-N,N-dimethyl-7H-pyrrolo[2,3-d]pyrimidine-6-carboxamide] | > 85% | > 85%
16 | CNc1ccc(C(=O)Nc2ccc(N(C)C)nn2)c(NCCCCCCCNC(=O)CN2CCN(c3ccc(Nc4ncc(F)c(-c5cc(F)c6nc(C)n(C(C)C)c6c5)n4)nc3)CC2)n1 [CPD-663, N-(6-(dimethylamino)pyridazin-3-yl)-2-((7-(2-(4-(6-((5-fluoro-4-(4-fluoro-1-isopropyl-2-methyl-1H-benzo[d]imidazol-6-yl)pyrimidin-2-yl)amino)pyridin-3-yl)piperazin-1-yl)acetamido)heptyl)amino)-6-(methylamino)nicotinamide] | > 85% | 55 to 85%
17 | CNc1ccc(C(=O)Nc2ccc(N(C)C)nn2)c(NCCOCCNC(=O)CN2CCN(c3ccc(Nc4ncc5cc6n(c5n4)C4(CCCCC4)CNC6=O)nc3)CC2)n1 [CPD-647, N-(6-(dimethylamino)pyridazin-3-yl)-6-(methylamino)-2-((2-(2-(2-(4-(6-((6′-oxo-7′,8′-dihydro-6′H-spiro[cyclohexane-1,9′-pyrazino[1′,2′:1,5]pyrrolo[2,3-d]pyrimidin]-2′-yl)amino)pyridin-3-yl)piperazin-1-yl)acetamido)ethoxy)ethyl)amino)nicotinamide] | > 85% | > 85%
18 | CNc1ccc(C(=O)Nc2ccc(N(C)C)nn2)c(NCCOCCC(=O)N2CCN(Cc3ccc(Nc4ncc(F)c(-c5cc(F)c6nc(C)n(C(C)C)c6c5)n4)nc3)CC2)n1 [CPD-606, N-(6-(dimethylamino)pyridazin-3-yl)-2-((2-(3-(4-((6-((5-fluoro-4-(4-fluoro-1-isopropyl-2-methyl-1H-benzo[d]imidazol-6-yl)pyrimidin-2-yl)amino)pyridin-3-yl)methyl)piperazin-1-yl)-3-oxopropoxy)ethyl)amino)-6-(methylamino)nicotinamide] | > 85% | > 85%
